Assay results from the supplement of paper PMC8617591.

Columns and labels:
[1] = tested on: Mycobacterium tuberculosis Erdman (autoluminescent); experiment: total FIC50 (Loewe) at 50% inhibition, three-drug combination (log2); higher = more antagonistic
Description: (§1)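 DiaMOND equipotent three-drug combination dose responses (10 doses, 1.5- or 2-fold spacing, centred on IC90) against autoluminescent M. tuberculosis Erdman in 8 in vitro models. Read-out is OD600, or luminescence for the intracellular and dormancy models, normalised to untreated wells. Hill-fit Einf, AUC25 and GRinf are potency metrics; FIC50 and FIC90 are total Loewe fractional inhibitory concentrations as log2 (negative = synergy).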

[2] = tested on: Mycobacterium tuberculosis Erdman (autoluminescent); experiment: total FIC90 (Loewe) at 90% inhibition, three-drug combination (log2); higher = more antagonistic
Description: as §1

[3] = tested on: Mycobacterium tuberculosis Erdman (autoluminescent); experiment: Einf, fitted maximum growth inhibition of three-drug combination (fraction); higher = stronger maximal inhibition
Description: as §1

[4] = tested on: Mycobacterium tuberculosis Erdman (autoluminescent); experiment: AUC25, normalised area under dose response up to IC25 (three-drug combination) (fraction (0-1)); higher = more potent at low dose
Description: as §1

[5] = tested on: Mycobacterium tuberculosis Erdman (autoluminescent); experiment: GRinf, maximum normalised growth rate inhibition (three-drug combination) (unitless (-1 to 1)); higher = less effect (negative = killing)
Description: as §1

CC[C@@H](CO)NCCN[C@@H](CC)CO [ethambutol] + CC(=O)NC[C@H]1CN(c2ccc(N3CCOCC3)c(F)c2)C(=O)O1 [linezolid] + COc1c(N2C[C@@H]3CCCN[C@@H]3C2)c(F)cc2c(=O)c(C(=O)O)cn(C3CC3)c12 [moxifloxacin]
Conditions	AUC25, [4]	Einf, [3]	GRinf, [5]	total FIC50, [1]	total FIC90, [2]
in vitro model: acidic pH 5.7, time point: constant (~7 days, model-specific)	0.121	0.782	-0.587	0.0272	–
in vitro model: acidic pH 5.7, time point: terminal (~4-5 doublings, model-specific)	0.101	0.956	-0.36	1.25	0.487
in vitro model: intracellular J774, time point: constant = terminal	–	0.966	-0.388	–	-0.395

Conditions	AUC25, [4]	Einf, [3]	GRinf, [5]	total FIC50, [1]	total FIC90, [2]
in vitro model: butyrate, time point: constant (~7 days, model-specific)	0.0929	0.887	0.105	0.436	–
in vitro model: butyrate, time point: terminal (~4-5 doublings, model-specific)	0.0678	0.938	0.104	0.501	0.397
in vitro model: cholesterol 0.05 mM, time point: constant (~7 days, model-specific)	0.149	0.725	-0.165	-0.0271	–
in vitro model: cholesterol 0.05 mM, time point: terminal (~4-5 doublings, model-specific)	0.162	0.932	-0.548	7.63	–
in vitro model: cholesterol-high 0.2 mM, time point: constant (~7 days, model-specific)	0.111	0.942	-0.318	0.596	–
in vitro model: cholesterol-high 0.2 mM, time point: terminal (~4-5 doublings, model-specific)	0.109	1	-0.97	0.421	1
in vitro model: dormancy (butyrate + nitrate, low O2), time point: constant (~7 days, model-specific)	0.0953	0.849	0.414	0.25	–
in vitro model: dormancy (butyrate + nitrate, low O2), time point: terminal (~4-5 doublings, model-specific)	0.0816	0.967	-0.0859	-0.563	0.576
in vitro model: standard 7H9 glycerol, time point: constant = terminal	0.0554	0.958	-0.3	0.808	0.685
in vitro model: valerate, time point: constant (~7 days, model-specific)	0.0828	0.872	0.0258	0.39	–
in vitro model: valerate, time point: terminal (~4-5 doublings, model-specific)	0.0583	0.938	-0.0184	0.654	0.845

CC[C@@H](CO)NCCN[C@@H](CC)CO [ethambutol] + CC(=O)NC[C@H]1CN(c2ccc(N3CCOCC3)c(F)c2)C(=O)O1 [linezolid] + NC(=O)c1cnccn1 [pyrazinamide]
Conditions	AUC25, [4]	Einf, [3]	GRinf, [5]	total FIC50, [1]	total FIC90, [2]
in vitro model: acidic pH 5.7, time point: constant (~7 days, model-specific)	0.087	0.835	-0.314	0.0711	–
in vitro model: acidic pH 5.7, time point: terminal (~4-5 doublings, model-specific)	0.0645	0.963	-0.245	1.01	-1.27
in vitro model: intracellular J774, time point: constant = terminal	–	0.966	-0.526	–	0.433

Conditions	AUC25, [4]	Einf, [3]	GRinf, [5]	total FIC50, [1]	total FIC90, [2]
in vitro model: butyrate, time point: constant (~7 days, model-specific)	0.114	0.891	0.0745	0.217	–
in vitro model: butyrate, time point: terminal (~4-5 doublings, model-specific)	0.0865	0.932	0.0716	0.189	0.638
in vitro model: cholesterol 0.05 mM, time point: constant (~7 days, model-specific)	0.16	0.785	-0.0274	–	–
in vitro model: cholesterol 0.05 mM, time point: terminal (~4-5 doublings, model-specific)	0.168	0.977	-0.696	-1.33	–
in vitro model: cholesterol-high 0.2 mM, time point: constant (~7 days, model-specific)	0.101	0.944	-0.667	0.563	–
in vitro model: cholesterol-high 0.2 mM, time point: terminal (~4-5 doublings, model-specific)	0.11	1	-0.959	0.303	0.985
in vitro model: dormancy (butyrate + nitrate, low O2), time point: constant (~7 days, model-specific)	0.107	0.75	0.388	0.819	–
in vitro model: dormancy (butyrate + nitrate, low O2), time point: terminal (~4-5 doublings, model-specific)	0.102	0.964	0.0543	0.154	0.627
in vitro model: standard 7H9 glycerol, time point: constant = terminal	0.071	0.86	0.221	1.2	–
in vitro model: valerate, time point: constant (~7 days, model-specific)	0.0934	0.864	0.000637	0.255	–
in vitro model: valerate, time point: terminal (~4-5 doublings, model-specific)	0.0462	0.909	0.102	0.697	–

CC[C@@H](CO)NCCN[C@@H](CC)CO [ethambutol] + CC(=O)NC[C@H]1CN(c2ccc(N3CCOCC3)c(F)c2)C(=O)O1 [linezolid] + O=[N+]([O-])c1cn2c(n1)OC[C@@H](OCc1ccc(OC(F)(F)F)cc1)C2 [pretomanid]
Conditions	AUC25, [4]	Einf, [3]	GRinf, [5]	total FIC50, [1]	total FIC90, [2]
in vitro model: acidic pH 5.7, time point: constant (~7 days, model-specific)	0.134	0.896	-0.388	0.236	–
in vitro model: acidic pH 5.7, time point: terminal (~4-5 doublings, model-specific)	0.0878	0.967	-0.322	1.28	1.01
in vitro model: intracellular J774, time point: constant = terminal	–	0.975	-0.561	–	0.0435

Conditions	AUC25, [4]	Einf, [3]	GRinf, [5]	total FIC50, [1]	total FIC90, [2]
in vitro model: butyrate, time point: constant (~7 days, model-specific)	0.0842	0.911	0.0181	0.478	–
in vitro model: butyrate, time point: terminal (~4-5 doublings, model-specific)	0.0626	0.944	0.0489	0.404	0.144
in vitro model: cholesterol 0.05 mM, time point: constant (~7 days, model-specific)	0.12	0.731	-0.14	-0.149	–
in vitro model: cholesterol 0.05 mM, time point: terminal (~4-5 doublings, model-specific)	0.146	0.921	-0.207	-1.06	–
in vitro model: cholesterol-high 0.2 mM, time point: constant (~7 days, model-specific)	0.0978	0.905	-0.175	0.567	–
in vitro model: cholesterol-high 0.2 mM, time point: terminal (~4-5 doublings, model-specific)	0.104	1	-0.831	0.339	0.921
in vitro model: dormancy (butyrate + nitrate, low O2), time point: constant (~7 days, model-specific)	0.142	0.891	-0.209	1.03	–
in vitro model: dormancy (butyrate + nitrate, low O2), time point: terminal (~4-5 doublings, model-specific)	0.0963	0.981	-0.881	-0.0848	-0.19
in vitro model: standard 7H9 glycerol, time point: constant = terminal	0.0762	0.904	0.0621	0.648	–
in vitro model: valerate, time point: constant (~7 days, model-specific)	0.153	0.901	-0.16	-0.171	–
in vitro model: valerate, time point: terminal (~4-5 doublings, model-specific)	0.115	0.923	-0.0362	-0.419	2.13
